In patent publication US10214502B2, “Method of inhibiting apolipoprotein-E expression while increasing expression of at least one of LDL-receptor protein or AbcA1 protein comprising administering a small compound” (California State University, Fresno, priority 2016, dated 2019):
Entries after “also recorded” stand apart in the source; their conditions may differ.

Experiments:
intracellular apoE = assay: SDS-PAGE/Western blot of intracellular apoE levels in E3 astrocyte cells; type: cell-based, mouse; conditions: 10 μM, 24 hrs, Western blot, FIGS. 6 and 7
Description: (§1) Western blot protocol and analysis was used to determine the LDLR levels in the E3 astrocyte cells. The western blot, otherwise known as a protein immunoblot, is a widely used analytical technique used to detect specific proteins in a cell culture or tissue sample. It uses gel electrophoresis to separate proteins by 3-D structure or denatured proteins by the length of the polypeptide. The proteins are then transferred to a membrane (typically nitrocellulose or PVDF), where they are stained with antibodies specific to the target protein. […] FIGS. 6 and 7 show gel images showing the effects the claimed compounds have on the target proteins. The protein bands show the presence and amount of each target protein present in the media from treated cells (compound numbers shown in the column headers).
(§2) In this case, after the 24-hour culture period, the treated cell media from cells treated with each respective compound were run by electrophoresis on polyacrylamide gel containing sodium dodecyl sulfate (SDS). The proteins from the SDS-PAGE process were then transferred to a nitrocellulose […] and stained.
FIGS. 6 and 7 show the presence of the following proteins in mouse E3 astrocyte cells: AbcA1, LDLR, ApoE3, and GAPDH. […]
Intracellular apoE levels as measured in FIGS. 6 and 7 are the amounts of apoE inside of cells. […]

LDLR = assay: SDS-PAGE/Western blot of LDLR expression in E3 astrocyte cells; type: cell-based, mouse; conditions: 10 μM, 24 hrs, Western blot, FIGS. 6 and 7
Protocol: Experiments were set up to test whether the claimed compounds increase LDLR expression in cortical astrocyte cells. The experiments involved treating mouse cortical astrocyte cells (E3 astrocyte cells) with the claimed compounds at 10 μM concentration for an incubation time of 24 hrs. DMSO solvent was used as a negative control, because the compounds were dissolved in DMSO when applied to the cells.
as §1, §2
(§3) FIGS. 6 and 7 show the presence of the following proteins in mouse E3 astrocyte cells: AbcA1, LDLR, ApoE3, and GAPDH. The GAPDH protein serves as the loading control protein for the western blot analysis. For each of the claimed compounds, FIGS. 6 and 7 show three samples run to determine the presence and amount of each indicated protein. The three samples for each treatment compound are indicated by the line under the compound number—the line stretches across three columns of protein bands.
(§4) The E3 astrocyte cells (1.6×10^4 cells/96-well plate) were grown for 1 day in RPMI, followed by a 24 hour equilibration in serum-free Opti-MEM (Life Technologies). Treatments were carried out in triplicate with […] of fresh Opti-MEM containing 10 μM of compound or vehicle (0.1% DMSO) for 24 hours. After the incubation time, the cellular media was collected as samples.
(§5) The collected samples were prepared for SDS-PAGE and western blot analysis by centrifuging and then extracting the protein by TCA-precipitation. The extracted protein was then resuspended in a Tris buffer.
(§6) After incubation and collection, the samples were run on a SDS-polyacrylamide gel (10% SDS). The SDS-polyacrylamide gel comprises the following:
(§7) Each sample was prepared to run on the SDS-polyacrylamide gel. About 20 μL of each sample was prepared to be run in the gel. The samples were prepared comprising the following:
(§8) The SDS-PAGE process was run with SDS-PAGE running buffer (Tris base, glycine, and 10% SDS) at 150 V until the dye front reached the bottom of the gel.
(§9) For the western blot portion of the analysis, the separated protein bands in the gel are then transferred to a nitrocellulose membrane by methods well known in the art. Following the western blot transfer, the blot is rinsed several times with dH2O to remove the salts. After blocking unreacted sites on the nitrocellulose membrane, all protein bands are stained with 0.5% Ponceau S (0.5 g Ponceau S, 1 ml Glacial HAc, 99 ml dH2O) and the target protein antibody.
(§10) The antibodies used for staining AbcA1 were obtained from Novus (NB100-2068). The antibodies used for staining LDLR were obtained from MBL International (JM-3839). The antibodies used for staining intracellular apoE were obtained from Meridian Life Science (K74180B). The antibodies used for staining GAPDH were obtained from Santa Cruz (sc-25778).

apoE3 = assay: ELISA of apoE3 levels in conditioned media of compound-treated mouse cortical astrocyte cells; type: cell-based; conditions: 10 μM compound, 24 hours, normalized to cell protein, relative to DMSO treated cells
Protocol: ApoE inhibition can be readily determined by any one of several assays and techniques known to those of ordinary skill in the art, including the enzyme-linked immunosorbant assay (ELISA). In the experimental results shown in Table 2 and FIG. 5, the ELISA assay was carried out on cortical astrocyte cells from mice. Astrocyte cells produce apoE, LDLR and AbcA1 proteins.
The experiments involved treating mouse cortical astrocyte cells with the claimed compounds at 10 μM concentration for an incubation time of 24 hrs. DMSO solvent was used as a negative control, because the compounds were dissolved in DMSO when applied to the cells.
The ELISA technique involves immobilizing an apoE-specific capture antibody to a 96-well plate, addition of sample (conditioned medium from mouse cortical astrocyte cells treated with the compound for 24 hours), and detection of the bound apoE using a second apoE-specific biotinylated antibody and streptavidin-HRP.
The Mabtech ELISA kit detects the presence of the three apoE isoforms: apoE2, apoE3, and apoE4.
To obtain the data shown in Table 2 and FIG. 5, the mouse cortical astrocyte cells were maintained in DMEM medium (Invitrogen) supplemented with 10 mM HEPES, 1 mM sodium pyruvate, 4.5 g/L glucose, 1% penicillin/streptomycin, and 10% fetal bovine growth serum (Invitrogen) at 37° C., with 5% CO2.
The cells (6×10^4 cells/24-well plate) were grown for 1 day in RPMI, followed by a 24 hour equilibration in serum-free Opti-MEM (Life Technologies). Treatments were carried out in triplicate with […] of fresh Opti-MEM containing 10 μM of compound or vehicle (0.1% DMSO) for 24 hours. […] ApoE concentration in the sample was calculated based on a standard curve derived using known amounts of purified apoE (from Biodesign).
The protein levels in the cells in the 24-well plates were measured using BCA Protein Assay Kit (from Pierce) and used to normalize the data. […] Sample apoE3 concentrations were represented relative to the DMSO treated cells.
The bars in FIG. 5 reflect the respective mean level apoE3 in the media for each compound with an indication of one […].

AbcA1 = assay: SDS-PAGE/Western blot of AbcA1 expression in E3 astrocyte cells; type: cell-based, mouse; conditions: 10 μM, 24 hrs, Western blot, FIGS. 6 and 7
Description: as §1, §2, §3
AbcA1 protein plays a key role in regulating cholesterol in biological systems and therefore affects amyloid beta plaque formation. The goal of the biological screen (results shown in FIGS. 6 and 7) was to find compounds that prevent amyloid beta (Aβ) plaque formation, one of the deleterious causes of Alzheimer's Disease.
as §4, §5, §6, §7, §8, §9, §10

| SMILES | intracellular apoE expression/levels compared to the DMSO control (intracellular apoE) | LDLR expression (amount of LDLR protein) compared to the DMSO control (LDLR) | ApoE3 Levels in Cell Media, Average of Three Tests (apoE3) | ApoE3 Levels in Cell Media, Test 1 (apoE3) | ApoE3 Levels in Cell Media, Test 2 (apoE3) | ApoE3 Levels in Cell Media, Test 3 (apoE3) | AbcA1 expression compared to the DMSO control (AbcA1) |
| --- | --- | --- | --- | --- | --- | --- | --- |
| CCCCN(CCCC)S(=O)(=O)c1cccc2ccccc12 [Compound 127, naphthalene-1-sulfonic acid dibutylamide] | decreasing | increased | 75.73 % of the DMSO control | 75.36 % of the DMSO control | 78.18 % of the DMSO control | 73.66 % of the DMSO control | increases |
| CCN(CC)Cc1ccc2ccccc2c1 [Compound 140] | – | increased; also recorded: increasing LDLR expression slightly | 90.9673 % of the DMSO control | 91.46 % of the DMSO control | 97.9104 % of the DMSO control | 83.54 % of the DMSO control | increases AbcA1 expression significantly; also recorded: increase |
